# Laboratory results from ChEMBL document CHEMBL1949643, “Dactylomelatriol, a biogenetically intriguing omphalane-derived marine sesquiterpene” (2012).
# Assays:
# [1] = test system: Bacillus cereus; assay: Antimicrobial activity against Bacillus cereus ATCC 21772 by broth macrodilution method; type: functional
# [2] = test system: Candida albicans; assay: Antifungal activity against Candida albicans SC5314 by broth macrodilution method; type: functional
SMILES,MIC [1] [µg/mL],MIC [2] [µg/mL]
C=C1C[C@H](O)[C@H](Br)C(C)(C)[C@@]12CCC(C)=C(Cl)C2 [ELATOL],> 50,–
C=C1C[C@@H](O)[C@@H](Br)C(C)(C)[C@]12CC[C@@](C)(Br)[C@H](Cl)C2 [OBTUSOL],> 50,> 50
